Assay results from US12194080B2, “Methods for identification, assessment, prevention, and treatment of metabolic disorders using PM20D1 and N-lipidated amino acids” (Dana-Farber Cancer Institute, Inc., priority 2015, dated 2025).
“Also recorded” adds a separate entry of the source.

Tests used:
[1] = target: T1, mouse PM20D1 (Mus musculus, UniProt Q8C165); experiment: In vitro PM20D1-catalyzed N-acyl amino acid hydrolysis; type: biochemical; details: N-acyl amide substrate 100 μM
T1 construct: Full-length mouse Pm20d1 cDNA (GE Dharmacon) was subcloned with an in-frame C-terminal 6× His and FLAG® tag; made in house; host or cells: 293A (HEK293A) cells stably infected with retrovirus
T1 sequence (Q8C165 25-503): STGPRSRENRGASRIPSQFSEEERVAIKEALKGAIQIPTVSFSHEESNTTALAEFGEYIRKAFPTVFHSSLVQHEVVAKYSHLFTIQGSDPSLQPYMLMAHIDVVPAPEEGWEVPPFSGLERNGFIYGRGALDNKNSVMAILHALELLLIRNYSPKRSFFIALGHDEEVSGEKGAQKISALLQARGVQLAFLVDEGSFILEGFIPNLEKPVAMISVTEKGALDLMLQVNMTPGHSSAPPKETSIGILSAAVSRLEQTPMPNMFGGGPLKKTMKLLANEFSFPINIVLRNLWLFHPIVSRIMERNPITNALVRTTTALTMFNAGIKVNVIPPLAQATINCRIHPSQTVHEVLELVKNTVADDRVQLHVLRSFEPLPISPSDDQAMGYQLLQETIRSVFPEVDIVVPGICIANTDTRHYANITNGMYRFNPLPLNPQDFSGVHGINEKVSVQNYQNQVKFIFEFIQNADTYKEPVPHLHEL
Protocol: The concentrated media was centrifuged to remove debris (600×g, 10 min, 4° C.) and the supernatant containing PM20D1-flag was decanted into a new tube. PM20D1-Flag was immunoaffinity purified overnight at 4° C. from the concentrated media using magnetic Flag-M2 beads (Sigma Aldrich). The beads were collected, washed three times in PBS, eluted with 3× Flag peptide ([…] in PBS, Sigma Aldrich), aliquoted, and stored at −80° C. For the purification of human PM20D1-flag, hPM20D1-flag plasmid (Origene) was transiently transfected into 293A cells. After two days, the media was changed, harvested 24 h later, concentrated, and purified exactly as described above.
In vitro PM20D1-catalyzed synthesis of N-acyl amino acids was measured by incubating purified PM20D1 protein with oleate (1.5 mM) and phenylalanine (0.1 mM) in PBS (to 100 μl final volume) at 37° C. for 1.5 hrs. In vitro PM20D1-catalyzed N-acyl amino acid hydrolysis was measured by incubating purified PM20D1 protein with the indicated N-acyl amino acid (0.1 mM) in PBS (to 100 μl final volume) at 37° C. for 1.5 hrs. Reactions were terminated by placing the vials at −80° C. and the products generated in vitro were analyzed by mass spectroscopy (MS).
Briefly, frozen serum (30 μl) for polar metabolomic analyses were extracted in 160 μl of 1:1 acetonitrile/methanol with inclusion of internal standard D3, ^15N-serine (1 nmol). Activity assays (100 μl) were extracted in 400 μl 1:1 acetonitrile/methanol. Following 30 s of thorough vortexing and 1 min of bath sonication, the polar metabolite fraction (supernatant) was isolated by centrifugation at 13,000×g for 10 min. Ten μl of this supernatant was analyzed by SRM-based targeted LC-MS/MS, or untargeted LC-MS.
For separation of polar metabolites, normal-phase chromatography was performed with a […] column (50 mm×4.60 mm, Phenomenex). Mobile phases were as follows: Buffer A, acetonitrile; Buffer B, 95:5 water/acetonitrile with 0.1% formic acid or 0.2% ammonium hydroxide with 50 mM ammonium acetate for positive and negative ionization mode, respectively. The flow rate for each run started at 0.2 ml/min for 2 min, followed by a gradient starting at 0% B and increasing linearly to 100% B over the course of 15 min with a flow rate of 0.7 ml/min, followed by an isocratic gradient of 100% B for 10 min at 0.7 ml/min before equilibrating for 5 min at 0% B with a flow rate of 0.7 ml/min. MS analysis was performed with an electrospray ionization (ESI) source on an Agilent 6430 QQQ LC—MS/MS. The capillary voltage was set to 3.5 kV, and the fragmentor voltage was set to 100 V. The drying gas temperature was 325° C., the drying gas flow rate was 10 l/min, and the nebulizer pressure was 45 psi. For polar targeted and untargeted metabolomic analysis, representative metabolites were quantified by SRM of the transition from precursor to product ions (corresponding to amino acid fragment) at associated collision energies. Several representative fragmentation ions are as follows: C18:1-Ala, 352>88; C18:1-Gly, 338>74; C18:1-Phe, 428>164; C18:1-Leu/Ile, 394>130; C20:4-Phe, 450>164; C20:4-Leu/Ile, 416>130. Untargeted LC-MS was performed by scanning a mass range of m/z 50-1200, and data were exported as mzdata files and uploaded to XCMSOnline (xcmsserver.nutr.berkeley.edu) to identify metabolites that were differentially changed. For targeted metabolomics analysis, metabolites were quantified by integrating the area under the peak and were normalized to internal standard values corresponding to 1 nmol D3, ^15N-serine.

[2] = Blood levels after a single i.p. dose; type: in vivo; details: C57BL/6, mouse, ip, single 30 mg/kg i.p. dose, mean±SEM, n=3
Protocol: Animal experiments were performed according to procedures approved by the Beth Israel Deaconess Medical Center IACUC. Mice were maintained in 12 h light-dark cycles at 22° C. and fed a standard irradiated rodent chow diet. All experiments on wild-type mice were performed with male C57BL/6 mice purchased from Jackson Laboratories, except for the AAV experiments, which were performed with male C57BL/6 mice from Charles River. UCP1-KO (stock #017476) and 16-20 week DIO mice (stock #380050) were obtained from Jackson Laboratories. For AAV injection experiments, mice were gently warmed using a 250 W clear infrared heat lamp, immobilized, and injected via tail vein with 10^10 virus/mouse (diluted in saline) in a total volume of 100 μl/mouse. Where indicated, mice were placed on high-fat diet (60% fat, Research Diets). For cold exposure experiments, mice were group housed and placed at 4° C. for the indicated times. For the preparation of C18:1-Phe for in vivo injections, compounds were dissolved in 18:1:1 v/v/v saline:Kolliphor® EL (Sigma Aldrich):DMSO and sonicated until homogeneous. Mice were administered compounds at 5 μl/g body weight at the indicated doses. For all injection experiments, mice were mock injected with saline daily for 3 days prior to the start of the experiments. […]

[3] = tested on: Diet induced obese (DIO) mice; experiment: Chronic daily i.p. administration of N-acyl amino acids to DIO mice (body weight, food intake, body composition, GTT); type: in vivo, mouse; details: chronic treatment, C18:1-Phe 30 or 50 mg/kg/day, C20:4-Gly 15 mg/kg/day, i.p.
Protocol: Animal experiments were performed according to procedures approved by the Beth Israel Deaconess Medical Center IACUC. Mice were maintained in 12 h light-dark cycles at 22° C. and fed a standard irradiated rodent chow diet. All experiments on wild-type mice were performed with male C57BL/6 mice purchased from Jackson Laboratories, except for the AAV experiments, which were performed with male C57BL/6 mice from Charles River. UCP1-KO (stock #017476) and 16-20 week DIO mice (stock #380050) were obtained from Jackson Laboratories. For AAV injection experiments, mice were gently warmed using a 250 W clear infrared heat lamp, immobilized, and injected via tail vein with 10^10 virus/mouse (diluted in saline) in a total volume of 100 μl/mouse. Where indicated, mice were placed on high-fat diet (60% fat, Research Diets). For cold exposure experiments, mice were group housed and placed at 4° C. for the indicated times. For the preparation of C18:1-Phe for in vivo injections, compounds were dissolved in 18:1:1 v/v/v saline:Kolliphor® EL (Sigma Aldrich):DMSO and sonicated until homogeneous. Mice were administered compounds at 5 μl/g body weight at the indicated doses. For all injection experiments, mice were mock injected with saline daily for 3 days prior to the start of the experiments. For glucose tolerance tests (GTTs), mice received their final dose of compound the day prior to the assay and were then fasted overnight. Glucose was administered at 1.5 g/kg.
Energy expenditure, O2 consumption, CO2 production, respiratory exchange ratio, total locomotor activity, and food intake measurements were made with a 16-cage Columbus Instruments Oxymax Comprehensive Lab Animal Monitoring System (CLAMS) at ambient room temperature (21-23° C.). Mice were acclimated for one day in metabolic cages prior to data collection. Whole-body composition was assessed with an EchoMRI™ 3-in-1 on conscious mice.

CCCCCCCC/C=C\CCCCCCCC(=O)N[C@@H](Cc1ccccc1)C(=O)O [C18:1-Phe, Oleoyl-L-phenylalanine]
substrate of the PM20D1 hydrolysis reaction [1]: substrates; also recorded: liberated free oleate
concentration at 2 h ([2]; 2 h post-injection): 3000 ± 300 nM
concentration at 6 h ([2]; 6 h post-injection): 400 ± 100 nM
food intake [3]: reduced food intake
